From ChEMBL document CHEMBL1201862, “PubChem BioAssay data set” (2004)
Where “and” joins values, the source holds several entries; their conditions need not be identical. Identical values can stand only once. Calls of active or inactive are those of the source.

Tests used:
[1] = target: T1, Voltage-gated N-type calcium channel alpha-1B subunit/Amyloid beta A4 precursor protein-binding family A member 1 (Homo sapiens, UniProt Q00975+Q02410); experiment: disruptors of Mint-PDZ/N-type channel peptide interaction – biochemical, HTRF, set 2, SAR follow-up (AID 434980); assay type: functional
[2] = target: T1, Voltage-gated N-type calcium channel alpha-1B subunit/Amyloid beta A4 precursor protein-binding family A member 1; experiment: disruptors of Mint-PDZ/N-type channel peptide interaction – biochemical, HTRF, SAR follow-up (AID 2489); assay type: functional
[3] = target: Scavenger receptor class B member 1 (Mus musculus, UniProt Q61009); experiment: mouse SR-BI DiI-HDL uptake blockers – ldlA[mSR-BI] cells, fluorescence, cherry pick, dose response (AID 493194); assay type: functional, cell-based;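 further: cellular uptake of fluorescent DiI-labeled HDL measured as cell fluorescence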
P388 = experiment: cells; assay type: functional; conditions: Mus musculus
SN12K1 = experiment: cells; assay type: functional; conditions: Homo sapiens
P388/ADR = experiment: cells; assay type: functional; conditions: Mus musculus
Beta-galactosidase = Beta-galactosidase (Escherichia coli, UniProt Q8VNN2); experiment: detection-enzyme interference by beta-gal modulators – biochemical, E. coli enzyme, set 3, artefact control for CCR6 antagonist project, dose response (AID 504712); assay type: functional
Vero [4] = experiment: cells; assay type: functional; conditions: Chlorocebus sabaeus
[5] = target: C-C chemokine receptor type 6 (Homo sapiens, UniProt P51684); experiment: antagonism of CCR6 beta-arrestin recruitment – cell-based, luminescent beta-arrestin readout, dose response (AID 504728); assay type: functional
Vero [6] = experiment: cells; assay type: functional, cell-based; conditions: Chlorocebus sabaeus
[7] = target: Kappa-type opioid receptor (Homo sapiens, UniProt P41145); experiment: SAR analysis of small molecule agonists of the kappa opioid receptor via a luminescent beta-arrestin assay - Set 2. [Related pubchem assays (depositor defined):AID1777, AID1785, AID1786, AID1966, AID2133, AID2136, AID2284, AID449737]; assay type: functional
Bcl-2-like protein 10 = Bcl-2-like protein 10 (Homo sapiens, UniProt Q9HD36); experiment: Bcl-B/TR3 peptide binding disruption – biochemical, fluorescence polarization, FITC-TR3 peptide, selectivity assay for Bfl-1 inhibitor project, primary screen (AID 748);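 further: fluorescence polarization from a fluorescein-labelled TR3 peptide binding purified Bcl-B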
HeLa [8] = experiment: viability loss in HeLa cells – cell-based, 24 h, cherry-picked samples, cytotoxicity control, dose response (AID 504726); assay type: functional; conditions: Homo sapiens;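 further: potency for cytotoxicity as loss of luminescence signal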
[9] = target: Cyclin-dependent kinase 5/CDK5 activator 1 (Homo sapiens, UniProt Q00535); experiment: blockade of human CDK5 activity – biochemical, cherry-picked samples, set 2, dose response (AID 504545)
X-box-binding protein 1 = X-box-binding protein 1 (Homo sapiens, UniProt P17861); assay type: functional, Cricetulus griseus;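 further: confirmatory dose-response counter-screen serving a CHOP assay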
[10] = loss of viability in HepG2 cells – cell-based, CellTiter-Glo, cherry-picked, cytotoxicity control for Shn3 inhibitor project, dose response (AID 624134); assay type: functional
BJ = experiment: growth inhibition of engineered Ras-driven BJ cells – cell-based, alamar blue fluorescence, cherrypicked samples, dose response (AID 2631); assay type: functional; conditions: Homo sapiens;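 further: confirmatory dose-response assay in RAS-dependent BJ fibroblasts engineered with TERT, LT and ST, with cytotoxicity read by fluorescence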
[11] = fluconazole-exposed Candida albicans growth modulators – fluorescence, retest, confirmation (AID 2467); assay type: functional, cell-based
[12] = reduction of Shn3 3'UTR-driven luciferase in osteoblasts – cell-based, Clone20 osteoblasts, firefly luciferase, cherry-picked, dose response (AID 624132); assay type: functional;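 further: firefly luciferase luminescence from reporter carrying the Shn3 3'UTR in osteoblasts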
[13] = NIH-3T3 fibroblast cytotoxicity, dose response, cytotoxicity control, cell-based, fluorescence, Alamar Blue, secondary assay (AID 2327); assay type: functional;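 further: NIH-3T3 mouse fibroblasts cultured with fluconazole at 8 µg/mL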
[14] = non-specific 3'UTR reporter inhibition in Clone20-Shn3RL – cell-based, Renilla luciferase, cherry-picked, counter-screen for Shn3 inhibitor project, dose response (AID 624133); assay type: functional
HeLa [15] = experiment: Cytotoxicity counterscreen assay for transcriptional activators of heat shock protein 70 (Hsp70). [Related pubchem assays: 1203, 1252 ]; assay type: functional; conditions: Homo sapiens

T1 sequence (Q00975 whole entry): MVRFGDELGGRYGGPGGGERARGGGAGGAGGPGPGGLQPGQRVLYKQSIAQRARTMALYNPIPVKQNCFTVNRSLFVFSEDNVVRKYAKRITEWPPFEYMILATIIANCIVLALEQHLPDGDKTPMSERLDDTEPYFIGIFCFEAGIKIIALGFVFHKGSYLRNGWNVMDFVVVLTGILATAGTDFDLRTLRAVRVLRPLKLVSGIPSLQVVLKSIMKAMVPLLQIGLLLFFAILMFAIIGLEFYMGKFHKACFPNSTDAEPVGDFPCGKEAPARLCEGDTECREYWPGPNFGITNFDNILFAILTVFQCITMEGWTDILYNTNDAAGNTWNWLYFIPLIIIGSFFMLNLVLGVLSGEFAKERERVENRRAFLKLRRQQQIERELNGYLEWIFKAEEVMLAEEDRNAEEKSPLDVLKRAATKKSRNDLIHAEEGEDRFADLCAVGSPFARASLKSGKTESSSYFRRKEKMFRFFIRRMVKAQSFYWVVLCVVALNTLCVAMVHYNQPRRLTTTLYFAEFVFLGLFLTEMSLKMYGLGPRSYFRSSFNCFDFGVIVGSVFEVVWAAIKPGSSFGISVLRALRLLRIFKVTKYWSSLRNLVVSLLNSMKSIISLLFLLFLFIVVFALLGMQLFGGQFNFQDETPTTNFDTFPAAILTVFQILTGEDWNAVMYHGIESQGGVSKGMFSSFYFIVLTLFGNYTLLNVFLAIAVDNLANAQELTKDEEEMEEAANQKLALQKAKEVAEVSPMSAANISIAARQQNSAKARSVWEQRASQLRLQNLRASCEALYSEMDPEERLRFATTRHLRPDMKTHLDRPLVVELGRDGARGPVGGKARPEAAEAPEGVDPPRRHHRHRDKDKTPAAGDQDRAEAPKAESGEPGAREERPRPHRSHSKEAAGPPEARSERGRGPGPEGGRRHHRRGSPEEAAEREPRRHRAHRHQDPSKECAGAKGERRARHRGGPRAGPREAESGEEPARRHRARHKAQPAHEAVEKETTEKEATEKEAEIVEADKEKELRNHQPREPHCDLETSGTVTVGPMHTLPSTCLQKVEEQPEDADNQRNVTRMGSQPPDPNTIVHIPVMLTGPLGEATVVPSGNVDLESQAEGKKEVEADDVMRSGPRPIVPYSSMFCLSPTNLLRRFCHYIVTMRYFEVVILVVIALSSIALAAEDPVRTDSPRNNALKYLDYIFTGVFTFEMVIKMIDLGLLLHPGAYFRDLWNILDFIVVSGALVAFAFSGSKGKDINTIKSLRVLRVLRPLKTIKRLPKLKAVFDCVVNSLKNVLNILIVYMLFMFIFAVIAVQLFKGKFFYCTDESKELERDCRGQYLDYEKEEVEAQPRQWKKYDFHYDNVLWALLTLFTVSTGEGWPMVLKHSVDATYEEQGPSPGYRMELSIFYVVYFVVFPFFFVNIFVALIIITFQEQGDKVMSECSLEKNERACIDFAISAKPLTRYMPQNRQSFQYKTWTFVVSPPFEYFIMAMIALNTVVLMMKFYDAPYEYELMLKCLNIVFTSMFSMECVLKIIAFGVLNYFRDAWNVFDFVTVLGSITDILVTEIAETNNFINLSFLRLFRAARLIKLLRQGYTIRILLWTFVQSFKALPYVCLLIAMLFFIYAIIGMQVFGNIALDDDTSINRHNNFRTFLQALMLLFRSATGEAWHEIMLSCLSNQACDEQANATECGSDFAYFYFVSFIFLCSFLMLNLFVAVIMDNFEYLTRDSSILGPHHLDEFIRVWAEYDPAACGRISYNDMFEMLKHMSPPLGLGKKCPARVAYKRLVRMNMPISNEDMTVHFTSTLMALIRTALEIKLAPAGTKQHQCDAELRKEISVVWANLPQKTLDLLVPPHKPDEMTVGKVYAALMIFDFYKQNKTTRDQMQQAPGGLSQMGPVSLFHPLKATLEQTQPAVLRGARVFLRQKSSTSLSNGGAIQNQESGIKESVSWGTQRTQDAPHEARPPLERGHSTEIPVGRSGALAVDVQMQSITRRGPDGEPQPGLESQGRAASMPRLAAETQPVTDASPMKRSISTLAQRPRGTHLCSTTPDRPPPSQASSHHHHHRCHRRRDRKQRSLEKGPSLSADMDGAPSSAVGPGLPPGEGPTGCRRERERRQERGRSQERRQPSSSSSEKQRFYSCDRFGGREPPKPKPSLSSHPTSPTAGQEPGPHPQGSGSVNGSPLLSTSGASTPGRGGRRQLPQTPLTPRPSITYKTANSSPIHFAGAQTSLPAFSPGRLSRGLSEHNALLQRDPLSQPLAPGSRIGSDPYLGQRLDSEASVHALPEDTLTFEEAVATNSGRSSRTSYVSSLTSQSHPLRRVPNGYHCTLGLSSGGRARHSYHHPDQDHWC
T1 sequence (Q02410 whole entry): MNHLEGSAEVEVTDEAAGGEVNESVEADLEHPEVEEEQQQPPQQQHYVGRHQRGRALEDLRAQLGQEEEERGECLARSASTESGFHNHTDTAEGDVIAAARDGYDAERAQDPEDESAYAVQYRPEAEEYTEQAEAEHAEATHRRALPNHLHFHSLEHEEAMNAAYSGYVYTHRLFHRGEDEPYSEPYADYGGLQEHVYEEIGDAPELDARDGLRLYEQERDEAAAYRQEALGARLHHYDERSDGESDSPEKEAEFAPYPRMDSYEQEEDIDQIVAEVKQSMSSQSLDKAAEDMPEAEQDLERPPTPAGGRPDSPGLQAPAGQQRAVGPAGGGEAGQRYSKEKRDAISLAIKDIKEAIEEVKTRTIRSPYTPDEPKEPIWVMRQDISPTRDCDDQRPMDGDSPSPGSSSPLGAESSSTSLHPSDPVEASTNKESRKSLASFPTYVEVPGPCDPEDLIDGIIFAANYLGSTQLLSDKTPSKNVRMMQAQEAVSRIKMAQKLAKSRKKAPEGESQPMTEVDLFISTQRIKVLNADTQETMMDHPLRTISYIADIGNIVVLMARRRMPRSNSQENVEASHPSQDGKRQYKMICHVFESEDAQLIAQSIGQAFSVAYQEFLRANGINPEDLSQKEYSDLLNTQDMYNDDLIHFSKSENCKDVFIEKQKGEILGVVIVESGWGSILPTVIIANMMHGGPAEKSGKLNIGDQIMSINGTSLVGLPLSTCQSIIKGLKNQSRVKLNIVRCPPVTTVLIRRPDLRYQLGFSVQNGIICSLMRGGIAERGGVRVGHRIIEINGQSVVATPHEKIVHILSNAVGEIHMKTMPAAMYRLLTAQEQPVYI
C-C chemokine receptor type 6, sequence (P51684 whole entry): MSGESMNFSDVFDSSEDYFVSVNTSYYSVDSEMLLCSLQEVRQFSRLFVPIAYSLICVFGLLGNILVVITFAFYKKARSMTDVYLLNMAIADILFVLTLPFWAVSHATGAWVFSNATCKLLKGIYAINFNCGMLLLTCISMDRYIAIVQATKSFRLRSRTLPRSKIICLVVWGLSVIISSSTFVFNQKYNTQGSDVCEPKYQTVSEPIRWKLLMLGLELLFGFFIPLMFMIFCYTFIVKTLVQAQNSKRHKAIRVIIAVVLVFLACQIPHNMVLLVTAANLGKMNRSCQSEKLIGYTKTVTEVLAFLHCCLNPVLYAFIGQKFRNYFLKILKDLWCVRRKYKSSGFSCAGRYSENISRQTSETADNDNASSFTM
Cyclin-dependent kinase 5/CDK5 activator 1, sequence (Q00535 whole entry): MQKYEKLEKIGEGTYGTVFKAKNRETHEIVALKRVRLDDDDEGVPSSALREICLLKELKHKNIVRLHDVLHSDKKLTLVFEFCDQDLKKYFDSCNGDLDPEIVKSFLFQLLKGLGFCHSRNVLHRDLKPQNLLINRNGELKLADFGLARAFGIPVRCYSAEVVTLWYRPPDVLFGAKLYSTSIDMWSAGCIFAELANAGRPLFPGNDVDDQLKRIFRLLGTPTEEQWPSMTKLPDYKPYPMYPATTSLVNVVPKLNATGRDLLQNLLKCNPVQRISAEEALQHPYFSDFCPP
Cyclin-dependent kinase 5/CDK5 activator 1, sequence (Q15078 whole entry, further chain): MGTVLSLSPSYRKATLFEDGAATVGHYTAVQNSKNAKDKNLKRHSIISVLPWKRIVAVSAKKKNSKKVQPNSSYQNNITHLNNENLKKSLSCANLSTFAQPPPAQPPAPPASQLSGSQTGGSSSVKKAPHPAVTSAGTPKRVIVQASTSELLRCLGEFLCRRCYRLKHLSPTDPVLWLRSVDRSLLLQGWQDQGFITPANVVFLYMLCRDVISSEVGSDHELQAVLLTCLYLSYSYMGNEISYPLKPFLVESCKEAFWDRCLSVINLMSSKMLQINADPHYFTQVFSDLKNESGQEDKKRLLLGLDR
Kappa-type opioid receptor, sequence (P41145 whole entry): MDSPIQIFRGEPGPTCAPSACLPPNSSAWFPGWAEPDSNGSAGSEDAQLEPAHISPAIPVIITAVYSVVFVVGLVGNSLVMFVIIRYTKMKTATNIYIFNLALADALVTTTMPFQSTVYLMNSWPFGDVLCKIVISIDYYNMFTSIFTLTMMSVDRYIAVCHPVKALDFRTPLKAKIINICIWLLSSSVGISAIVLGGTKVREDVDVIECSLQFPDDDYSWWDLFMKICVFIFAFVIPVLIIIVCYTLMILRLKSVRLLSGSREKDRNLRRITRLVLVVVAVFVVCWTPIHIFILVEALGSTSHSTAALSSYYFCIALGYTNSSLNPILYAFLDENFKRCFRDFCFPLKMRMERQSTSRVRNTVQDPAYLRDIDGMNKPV
X-box-binding protein 1, sequence (P17861 whole entry): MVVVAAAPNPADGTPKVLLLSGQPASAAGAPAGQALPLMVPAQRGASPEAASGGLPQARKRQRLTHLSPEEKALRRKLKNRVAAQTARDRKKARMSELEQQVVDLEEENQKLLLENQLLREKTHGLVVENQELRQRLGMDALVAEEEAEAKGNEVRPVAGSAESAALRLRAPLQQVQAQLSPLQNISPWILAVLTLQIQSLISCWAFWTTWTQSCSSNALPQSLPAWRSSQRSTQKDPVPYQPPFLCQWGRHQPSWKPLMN
Bcl-2-like protein 10, sequence (Q9HD36 whole entry): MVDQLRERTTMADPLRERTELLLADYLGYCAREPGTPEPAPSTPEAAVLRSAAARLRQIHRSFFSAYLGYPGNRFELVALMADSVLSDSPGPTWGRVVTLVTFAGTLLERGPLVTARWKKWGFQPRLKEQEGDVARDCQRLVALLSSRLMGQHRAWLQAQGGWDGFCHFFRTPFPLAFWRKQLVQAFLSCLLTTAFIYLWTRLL

SMILES: CC(=O)Oc1cccc(N2C(=O)C3C(C2=O)C2(C)C=CC3(C)O2)c1 (configuration not stated)
- IC50 [1]: 9.86 µM (active) and 9.63 µM (active)
- IC50 [2]: 12 µM (active) and 18.3 µM (active)

SMILES: COc1ccc(OC)c(Nc2ccc(Nc3cc(OC)ccc3OC)nn2)c1
- AC50 [3]: 19.8 µM (active)

SMILES: CCCC/C=C1/CCC(CN(C)C)C1=O (configuration not stated)
- GI50 (P388): 0.164 µM (active)
- GI50 (SN12K1): 0.776 µM (active)
- GI50 (P388/ADR): 0.155 µM (active)
- IC50 (Beta-galactosidase): > 66.6 µM (inactive)
- CC50 (Vero [4]): > 25 µM (active)
- IC50 [5]: 27.1 µM (inactive)
- IC50 (Vero [6]): 21.8 µM (active)

SMILES: O=C(CN(Cc1cccs1)C(=O)c1ccccn1)NC1CCCCC1
- EC50 [7]: > 20 µM (inactive)

SMILES: COc1cc(CC(=O)OCC(=O)Nc2ncc(Cl)cc2Cl)cc(OC)c1OC
- IC50 (Bcl-2-like protein 10): 68.3 µM (inactive)

SMILES: Cn1c(N)c(C(=O)COC(=O)c2ccc(Cl)c(S(=O)(=O)N3CCCC3)c2)c(=O)n(C)c1=O
- AC50 (HeLa [8]): 68.1 µM (active)

SMILES: Fc1ccccc1/C=N/Nc1[nH]cnc2ncnc1-2
- AC50 [9]: 17.4 µM (active)

SMILES: Cc1cc(Cl)n2c(nc3ccccc32)c1C#N
- Absolute IC50 (XBP1) (X-box-binding protein 1): 10 µM
- AC50 [10]: > 70 µM (inactive)
- EC50 (BJ): 0.343 µM (inconclusive)
- EC50 [11]: 0.54 µM (active)
- AC50 [12]: 1.85 µM (active)
- EC50 [13]: 6.06 µM (inconclusive)
- AC50 [14]: 5.72 µM (active)
- CC50 (HeLa [15]): > 11 µM (not active)
